Experimental data published in article PMC8532147, “Dual Stimuli-Responsive Dynamic Covalent Peptide Tags: Toward Sequence-Controlled Release in Tumor-like Microenvironments” (Journal of the American Chemical Society, 2021).
Entries after “also recorded” stand apart in the source; their conditions may differ. Square brackets hold non-standard residues; d marks the D form. Ends that are not written are not given here. Peptide text beside a SMILES is read from it. Phe(4-B(OH)2) = N[C@@H](Cc1ccc(B(O)O)cc1)C(=O)O; Dopa = N[C@@H](Cc1ccc(O)c(O)c1)C(=O)O

B1: OSCSO (peptide)
chain: [Dopa]SCS[Dopa]

Experiments:
[1] = quoted as stand-in for the pKa of 4-borono-phenylalanine; cited from earlier work
BSCSB = assay: Isothermal titration calorimetry (ITC), BSCSB titrated into the ligand peptide; format: binding; conditions: for binding in ITC at pH 7.4 (ligand comparison): pH 7.4, 25 °C, BSCSB titrated to YSCSY or OSCSO as ligand
Description: The pH-reversible interactions of boronic acid and catechol groups, the formation of disulfides, as well as the responsiveness of the bis-peptide system were further investigated under different conditions (Figure 5). First, the boronic acid condensation with the complementary catechol and the thermodynamic properties were assessed under pH conditions that are relevant to physiological conditions, i.e., pH = 7.4 typical for extracellular environment of normal tissues and pH 6 for acidic intracellular compartments such as endosomes.[28] Equimolar concentrations of the reacting tags were applied to investigate the thermodynamic parameters associated with the formation of the heterodimer. DyLight488 labeled peptide (DL488-BSCSB) was synthesized by connecting the commercially available NHS-ester of this dye to the N-terminus of the BSCSB sequence to enable a microscale thermophoresis (MST) experiment, in which the dissociation constant could be determined. MST measurements were performed by titrating DL488-BSCSB (2 μM) against the complementary OSCSO peptide binding partner (76 nM to 5 mM). […] Such an improvement could be explained by the lack of electrostatic repulsion due to the presence of the electroneutral serine (at physiological pH) in the sequence. […] To assess the binding constant at physiological pH and to understand the type of complex formed, isothermal titration calorimetry (ITC) measurements were performed. The raw data were plotted as heat rate versus time at pH = 6 and 7.4. (SI, Figure S16). […]
Additionally the same amount of BSCSB solution was titrated into pure water to determine the heat of dilution for reference. As a control another sequence was checked for binding with L-tyrosines instead of L-DOPA and measured as before mentioned. […]
Figure S 16: ITC titrations performed at a) pH = 7.4 and b) 6.0, showing the heat rate signals after base line correction. No heat change different from the dilution (blank) was detected for pH = 6.0. […]

A549 cells = assay: Cell uptake by confocal microscopy; format: cell-based, human; conditions: 24 h, 37 °C
Description: For cell uptake studies, A549 cell line was selected, which is a model of alveolar Type II pulmonary epithelium.[35] The uptake was performed under two conditions to test the robustness of the resultant conjugate, which represents the extracellular conditions found in different stages of cancer progression.[36] Internalization of the conjugate was first studied in standard cell culture media (∼ neutral pH). A solution of DL488 ≃ TAT was applied directly to A549 cells to a final concentration of 10 μM, without any further workup or further purification. As additional controls, (1) a conjugate DL488-BSCSB ≃ OSCSO incubated with free TAT sequence and (2) a conjugate without the disulfide bridge (DL488-BSGSB) ∼ (TAT-OSCSO) where cysteine was replaced by glycine in one of the sequences were both applied at 10 μM (Figure 7a). […] Next, we proceeded to verify that the peptide tags are robust even under metastatic tumor-like microenvironment, where acidosis is a hallmark. Consequently, the low extracellular pH can result in a more invasive phenotype (Figure 7c), which is more challenging to treat.[28] First, A549 cancer cells were subjected to acute acidification to derive cells cultured at pH 6.4.[37]−[39] Thereafter DL488 ≃ TAT and controls 1 and 2 were applied at 10 μM for 24 h. […] Therefore, the linker chemistry can potentially be adopted for more invasive cancer phenotypes.
Sample preparation protocol. 20 µL of 2 mM solutions of DL488-BSCSB and either OSCSO, OSCSO and TAT or TAT-OSCSO were mixed together to obtain 40 µL of 1 mM solution of preassembled conjugate (in 10 mM phosphate buffer pH = 8 with 10% DMSO). The conjugate was subsequently oxidized by addition of 1 µL 75 mM potassium peroxymonosulfate (Oxone®) solution in 100 mM PB, pH = 7.4 to obtain its final concentration as 1.8 mM. Prepared conjugate was used directly for the cell studies without […]
Cell culture. The human cell line A549 from adenocarcinomic lung tissue (American Type Culture Collection, Manassas, VA, US) was cultured in Dulbecco's modified Eagle medium (DMEM 4.5 g/L D-Glucose, L-Glutamine; Gibco by ThermoFisher Scientific, Germany) supplemented with 10% fetal calf serum (FCS; Sigma Aldrich, Germany) and 1% Penicillin/Streptomycin (Invitrogen, Germany) at a humified atmosphere with 37 °C and 5% CO2 . Fresh culture medium was replaced every two days and cells were subcultured after reaching 80% confluence.
Evaluation of cell uptake. A549 cells were detached by TrypLE Select (Gibco by ThermoFisher Scientific, Germany) and centrifuged 5 min at 1000 rpm. […]

OSCSO = target: B1; assay: ITC; BSCSB titrated to OSCSO (2Red); 100 mM phosphate buffer pH 7.4; independent binding model fit; conditions: both partners purified
[2] = target: T1, DyLight488 labeled peptide DL488-BSCSB; assay: MST; DL488-BSCSB (2 μM) held constant, OSCSO titrated (76 nM to 5 mM); 100 mM phosphate buffer pH 7.4 in the presence of TCEP; the legend of Figure 5b calls it a fluorescence quenching assay; conditions: both partners purified
T1 chain: DyLight488-[Phe(4-B(OH)2)]SCS[Phe(4-B(OH)2)]

[3] = target: T1, DyLight488 labeled peptide DL488-BSCSB; assay: MST; DL488-BSCSB (2 μM) held constant, OSCSO titrated (76 nM to 5 mM); 100 mM phosphate buffer pH 6.0 in the presence of TCEP; the legend of Figure 5b calls it a fluorescence quenching assay; conditions: both partners purified
[4] = standard cell culture media (∼ neutral pH), 10 μM, triplicates

Cc1ccc(B(O)O)cc1 [4-methylphenylboronic acid]
pKa [1]: ~8.9

NC(=O)[C@H](Cc1ccc(O)c(O)c1)NC(=O)[C@H](CO)NC(=O)[C@H](CS)NC(=O)[C@H](CO)NC(=O)[C@@H](N)Cc1ccc(O)c(O)c1 [OSCSO] (H-[Dopa]SCS[Dopa]-NH2)
binding in ITC at pH 6 (BSCSB; pH 6.0, 100 mM phosphate buffer, 25 °C, BSCSB titrated into OSCSO, compared with heat of dilution): No heat change different from the dilution; also recorded: lack of binding
binding in ITC at pH 7.4 (ligand comparison) (BSCSB): significant heat change

(DL488-BSGSB) ∼ (TAT-OSCSO) (sidechain bridge or staple) [control 2]
uptake in A549 cells (A549 cells; acidic media pH 6.4, 10 μM, no CO2, triplicates): not internalized
uptake in A549 cells (A549 cells; [4]): no uptake was observed

DL488-BSCSB≃OSCSO+TAT (bicyclic or more) [control 1]
uptake in A549 cells (A549 cells; [4]): no uptake was observed

DL488-BSCSB≃OSCSO-TAT (bicyclic or more) [DL488 ≃ TAT, dual responsive conjugate of TAT-OSCSO and DL488-BSCSB after addition of Oxone]
uptake in A549 cells (A549 cells; [4]): significant uptake

YSCSY
binding in ITC at pH 7.4 (ligand comparison) (BSCSB): No binding

[Phe(4-B(OH)2)]SCS[Phe(4-B(OH)2)] [BSCSB]
Kd (OSCSO): 1800 ± 400 nM
stoichiometry N (OSCSO): 1.2 ± 0.1

B1
Kd [2]: 1800 ± 400 nM
Kd [3]: > 440000 nM
